The numbers were not newly measured in US20230405024A1 (priority 2020, published 2023), which cites them from elsewhere.

As to cannabidiol [CBD], the solubility in water result is “insoluble”.
